One assay concerns Alternaria solani. Description: Example A: Alternaria test (tomato)/protective. Format: in vivo. Conditions: protective, 500 ppm, evaluation 7 days after inoculation. The method, then:
Solvent: 49 parts by weight of N,N-dimethylformamide Emulsifier: 1 part by weight of alkylaryl polyglycol ether To produce a suitable preparation of active compound, 1 part by weight of active compound is mixed with the stated amounts of solvent and emulsifier, and the concentrate is diluted with water to the desired concentration. […] The plants then remain at 96% rel. atmospheric humidity and a temperature of 20° C.

The subject of another assay is Pyricularia oryzae. Format: in vivo. Conditions: rice, protective, 500 ppm, evaluation 7 days after inoculation.
A further assay has as its system Venturia inaequalis. Description: Example D: Venturia test (apple)/protective. Format: in vivo. The settings on record: protective, 100 ppm, evaluation 10 days after inoculation. As for the experimental part: Solvent: 24.5 parts by weight of acetone • 24.5 parts by weight of dimethylacetamide Emulsifier: 1 part by weight of alkylaryl polyglycol ether To produce a suitable preparation of active compound, 1 part by weight of active compound is mixed with the stated amounts of solvent and emulsifier, and the concentrate is diluted with water to the desired concentration. To test for protective activity, young plants are sprayed with the preparation of active compound at the stated application rate. […] The plants are then placed in a greenhouse at about 21° C. and a relative atmospheric humidity of about 90%.

Another assay deals with Uromyces appendiculatus. Description: Example E: Uromyces test (bean)/protective. Format: in vivo. The settings on record: protective, 10 ppm, evaluation 10 days after inoculation.
The subject of the next assay is Phakopsora pachyrhizi. Description: Example F: Phakopsora test (soya beans)/protective. Format: in vivo. Conditions: protective, 100 ppm, evaluation 7 days after inoculation. The method, then: Solvents: 24.5 parts by weight of acetone • 24.5 parts by weight of dimethylacetamide Emulsifier: 1 part by weight of alkylaryl polyglycol ether To produce a suitable preparation of active compound, 1 part by weight of active compound is mixed with the stated amounts of solvent and emulsifier, and the concentrate is diluted with water to the desired concentration. To test for protective activity, young plants are sprayed with the preparation of active compound at the stated application rate.

Assay [1] relates to Blumeria graminis f.sp. hordei. Description: Example G: Blumeria graminis test (barley)/protective. Format: in vivo. Conditions: protective, 500 ppm, evaluation 7 days after inoculation. The method, then:
Solvent: 49 parts by weight of N,N-dimethylacetamide Emulsifier: 1 part by weight of alkylaryl polyglycol ether To produce a suitable preparation of active compound, 1 part by weight of active compound is mixed with the stated amounts of solvent and emulsifier, and the concentrate is diluted with water to the desired concentration. To test for protective activity, young plants are sprayed with the preparation of active compound at the stated application rate. After the spray coating has dried on, the plants are dusted with spores of Blumeria graminis f.sp. hordei.

The subject of the next assay is Leptosphaeria nodorum. Description: Example H: Leptosphaeria nodorum test (wheat)/protective. Format: in vivo. Conditions: protective, 500 ppm, evaluation 8 days after inoculation. As for the experimental part: Solvent: 49 parts by weight of N,N-dimethylacetamide Emulsifier: 1 part by weight of alkylaryl polyglycol ether To produce a suitable preparation of active compound, 1 part by weight of active compound is mixed with the stated amounts of solvent and emulsifier, and the concentrate is diluted with water to the desired concentration. To test for protective activity, young plants are sprayed with the preparation of active compound at the stated application rate. After the spray coating has dried on, the plants are sprayed with a spore suspension of Leptosphaeria nodorum.

Assay [2] concerns Septoria tritici. Description: Example I: Septoria tritici test (wheat)/protective. Format: in vivo. Conditions: protective, 500 ppm, evaluation 21 days after inoculation. As for the experimental part:
(§1) Solvent: 49 parts by weight of N,N-dimethylacetamide Emulsifier: 1 part by weight of alkylaryl polyglycol ether To produce a suitable preparation of active compound, 1 part by weight of active compound is mixed with the stated amounts of solvent and emulsifier, and the concentrate is diluted with water to the desired concentration. To test for protective activity, young plants are sprayed with the preparation of active compound at the stated application rate. After the spray coating has dried on, the plants are sprayed with a spore suspension of Septoria tritici.

Assay [3] concerns Pyrenophora teres. Description: Example K: Pyrenophora teres test (barley)/protective. Conditions: protective, 500 ppm, evaluation 8 days after inoculation. Format: in vivo. The method, then: Solvent: 49 parts by weight of N,N-dimethylacetamide Emulsifier: 1 part by weight of alkylaryl polyglycol ether To produce a suitable preparation of active compound, 1 part by weight of active compound is mixed with the stated amounts of solvent and emulsifier, and the concentrate is diluted with water to the desired concentration. To test for protective activity, young plants are sprayed with the preparation of active compound at the stated application rate. After the spray coating has dried on, the plants are sprayed with a spore suspension of Pyrenophora teres.

Another assay deals with Phytophthora infestans. Format: in vivo. The settings on record: tomato, preventative, 500 ppm, evaluation 5 days after inoculation.
Assay [4] deals with Pyrenophora teres. Description: Example R: preventative in vivo test with Pyrenophora teres (net blotch on barley). The settings on record: 500 ppm, evaluation 12 days after inoculation. The method, then:
The active compounds tested are prepared by homogenization in a mixture of acetone/Tween/DMSO and then diluted with water to the desired active compound concentration. Barley plants (cultivar “Plaisant”), sown in a 50/50 peat/pozzolana soil substrate and cultivated at 22° C. (12 h)/20° C. (12 h), are treated at the 1-leaf stage (height 10 cm) by spraying with the active compound, prepared as above. As a control, plants are treated with the mixture of acetone/Tween/DMSO/water without the active compound. After 24 hours, the plants are inoculated by spraying the leaves with an aqueous suspension of Pyrenophora teres spores.

Assay [5] deals with Septoria tritici. Description: Example U: preventative in vivo test with Septoria tritici (leaf blotch disease on wheat). The settings on record: 500 ppm, evaluation 21 to 28 days after inoculation.
Assay [6] concerns Septoria tritici. Description: Example Z: Septoria tritici test (wheat)/protective, comparison. Format: in vivo. The settings on record: protective, application rate 250 ppm, evaluation 21 days after inoculation. The method, then: as §1, with “active compound or active compound combination is mixed” for “active compound is mixed”, “active compound or active compound combination at the” for “active compound at the”

Each structure is given as a SMILES string. Several values for one entry are separate records, joined by “and”; a condition that tells them apart may be missing. Equal entries are not always repeated.

Turning to `OC(Cc1ccccc1Cl)(Cn1ccnc1I)C1(Cl)CC1` (stereo not shown) [Example 1, 2-(1-chlorocyclopropyl)-1-(2-chlorophenyl)-3-(2-iodo-1H-imidazol-1-yl)propan-2-ol], the Eff. % was 88% with Alternaria solani; 95% with Pyricularia oryzae; 100% with Venturia inaequalis; 100% and 88% in the assay on Uromyces appendiculatus; 98% in the assay with Phakopsora pachyrhizi; 100% in assay [1]. Besides, the Eff. % with Leptosphaeria nodorum, with Septoria tritici [2] and in the assay on Pyrenophora teres [3] was 100% in each case. Further, the Efficacy % in the assay on Phytophthora infestans, in the assay on Pyrenophora teres [4] and with Septoria tritici [5] was 100% each time. In the assay on Septoria tritici [6], the Efficacy in % is on record as 86%.
